According to patent US9730944B2, “Antiviral activity of novel bicyclic heterocycles” (priority 2010, dated 2017):
Converted amounts (≈) assume the structure as drawn. Like-named read-outs stand apart in the source and are kept apart here.

Tests used:
[1] = test system: hRV-72; experiment: Rhinovirus type 72 antiviral assay in Hela Rh cells, MTS readout; assay type: cell-based, Human rhinovirus; conditions: Human rhinovirus sp., HRV72, HeLa Rh, Hela Rh cells; read-out: hRV-72 EC50
[2] = test system: hRV-45; experiment: Rhinovirus type 45 antiviral assay in Hela Rh cells, MTS readout; assay type: cell-based, Human rhinovirus; conditions: Human rhinovirus sp., HRV45, HeLa Rh, Hela Rh cells; read-out: hRV-45 EC50
[3] = test system: hRV-9; experiment: Rhinovirus type 9 antiviral assay in Hela Rh cells, MTS readout; assay type: cell-based, Human rhinovirus; conditions: Human rhinovirus sp., HRV9, HeLa Rh, Hela Rh cells; read-out: hRV-9 EC50
[4] = test system: hRV-70; experiment: Rhinovirus type 70 antiviral assay in Hela Rh cells, MTS readout; assay type: cell-based, Human rhinovirus; conditions: Human rhinovirus sp., HRV70, HeLa Rh, Hela Rh cells; read-out: hRV-70 EC50
[5] = test system: hRV-85; experiment: Rhinovirus type 85 antiviral assay in Hela Rh cells, MTS readout; assay type: cell-based, Human rhinovirus; conditions: Human rhinovirus sp., HRV85, HeLa Rh, Hela Rh cells; read-out: hRV-85 EC50
[6] = test system: hRV-14; experiment: Rhinovirus type 14 antiviral assay in Hela Rh cells, MTS readout; assay type: cell-based, Human rhinovirus; conditions: Rhinovirus B, HRV14, HeLa Rh, Hela Rh cells; read-out: hRV-14 EC50
[7] = test system: hRV-41; experiment: Rhinovirus type 41 antiviral assay in Hela Rh cells, MTS readout; assay type: cell-based, Human rhinovirus; conditions: Human rhinovirus sp., HRV41, HeLa Rh, Hela Rh cells; read-out: hRV-41 EC50
[8] = test system: hRV-86; experiment: Rhinovirus type 86 antiviral assay in Hela Rh cells, MTS readout; assay type: cell-based, Human rhinovirus; conditions: Human rhinovirus sp., HRV86, HeLa Rh, Hela Rh cells; read-out: hRV-86 EC50
[9] = test system: hRV-39; experiment: Rhinovirus type 39 antiviral assay in Hela Rh cells, MTS readout; assay type: cell-based, Human rhinovirus; conditions: Human rhinovirus sp., HRV39, HeLa Rh, Hela Rh cells; read-out: hRV-39 EC50
[10] = test system: hRV-15; experiment: Rhinovirus type 15 antiviral assay in Hela Rh cells, MTS readout; assay type: cell-based, Human rhinovirus; conditions: Human rhinovirus sp., HRV15, HeLa Rh, Hela Rh cells; read-out: hRV-15 EC50
[11] = test system: hRV-63; experiment: Rhinovirus type 63 antiviral assay in Hela Rh cells, MTS readout; assay type: cell-based, Human rhinovirus; conditions: Human rhinovirus sp., HRV63, HeLa Rh, Hela Rh cells; read-out: hRV-63 EC50
[12] = test system: hRV-2; experiment: Rhinovirus type 2 antiviral assay in Hela Rh cells, MTS readout; assay type: cell-based, Human rhinovirus; conditions: Rhinovirus A, HRV2, HeLa Rh, Hela Rh cells; read-out: hRV-2 EC50
[13] = Cytostatic/cytotoxic effect in Hela Rh cells (rhinovirus methodology, MTS); conditions: human, CC50, Hela Rh cells
[14] = test system: hRV-29; experiment: Rhinovirus type 29 antiviral assay in Hela Rh cells, MTS readout; assay type: cell-based; conditions: Human rhinovirus sp., HRV29, HeLa Rh, Hela Rh cells; read-out: hRV-29 EC50
[15] = test system: hRV-42; experiment: Rhinovirus type 42 antiviral assay in Hela Rh cells, MTS readout; assay type: cell-based, Human rhinovirus; conditions: Human rhinovirus sp., HRV42, HeLa Rh, Hela Rh cells; read-out: hRV-42 EC50
[16] = Cytotoxicity in HCV-1a replicon cells, Promega CellTiter-Glo cell viability assay
[17] = test system: poliovirus (PV type 1); experiment: microbe, parasite or virus in culture; assay type: cell-based; conditions: Enterovirus C, read-out: PV-1 EC50
[18] = in vitro; conditions: human, PV CC50
[19] = in vitro; conditions: human
[20] = test system: HIV-2 strain (ROD); experiment: Inhibition of replication of HIV-2 (ROD strain) in MT-4 cells, MTT assay; assay type: cell-based; conditions: Human immunodeficiency virus 2, MT4, 120 h; MT-4 cells, MTT assay, five days after infection, 50% protection from cytopathic effect; read-out: EC50 (μM) HIV-2 (ROD)
[21] = test system: poliovirus (PV type 3); experiment: microbe, parasite or virus in culture; assay type: cell-based; conditions: Enterovirus C, read-out: PV-3 EC50
[22] = test system: genotype 1a H-77 replicon; experiment: HCV-1a replicon potency in RLuc-1 cells, bioluminescence; assay type: cell-based
[23] = test system: HIV-1 strain IIIB; experiment: Inhibition of replication of HIV-1 (IIIB strain) in MT-4 cells, MTT assay; assay type: cell-based; conditions: Human immunodeficiency virus 1, IIIB, MT4, 120 h; MT-4 cells, MTT assay, five days after infection, 50% protection from cytopathic effect; read-out: EC50 (μM) HIV-1 (IIIB)
[24] = test system: poliovirus (PV type 2); experiment: microbe, parasite or virus in culture; assay type: cell-based; conditions: Enterovirus C, read-out: PV-2 EC50
[25] = in vitro; conditions: African green monkey, PV CC50

Row | SMILES | EC50 [1] [µg/mL] | EC50 [2] [µg/mL] | EC50 [3] [µg/mL] | EC50 [4] [µg/mL] | EC50 [5] [µg/mL] | EC50 [6] [µg/mL] | EC50 [7] [µg/mL] | EC50 [8] [µg/mL] | EC50 [9] [µg/mL] | EC50 [10] [µg/mL] | EC50 [11] [µg/mL] | EC50 [12] [µg/mL] | CC50 [13] [µg/mL] | EC50 [14] [µg/mL] | EC50 [15] [µg/mL] | also measured
1 | COc1ccc(OCC(=O)N2CCN(c3nc(N)nc4sc(CCc5ccc(OC)c(OC)c5)nc34)CC2)cc1 [Example 257, 1-(4-(5-amino-2-(3,4-dimethoxyphenethyl)thiazolo[5,4-d]pyrimidin-7-yl)piperazin-1-yl)-2-(4-methoxyphenoxy)ethanone] | 5.95 (≈ 10.5 µM) | 30.8 (≈ 54.6 µM) | 3.69 (≈ 6.53 µM) | 7.1 (≈ 12.6 µM) | 8.05 (≈ 14.3 µM) | 2.32 (≈ 4.11 µM) | 31.1 (≈ 55.1 µM) | 4.79 (≈ 8.48 µM) | 2.26 (≈ 4 µM) | 46.2 (≈ 81.9 µM) | 26.4 (≈ 46.8 µM) | 3.01 (≈ 5.33 µM) | > 50 | 14.9 (≈ 26.3 µM) | 5.09 (≈ 9.01 µM) | –
2 | COc1cccc(CCc2nc3c(N4CCN(C(=O)COc5ccc(Br)cc5)CC4)nc(N)nc3s2)c1 [Example 254, 1-(4-(5-amino-2-(3-methoxyphenethyl)thiazolo[5,4-d]pyrimidin-7-yl)piperazin-1-yl)-2-(4-bromophenoxy)ethanone] | 9.05 (≈ 15.5 µM) | 4.87 (≈ 8.35 µM) | 1.26 (≈ 2.16 µM) | 4.77 (≈ 8.17 µM) | 3.99 (≈ 6.84 µM) | 1.23 (≈ 2.11 µM) | 13 (≈ 22.3 µM) | 4.62 (≈ 7.92 µM) | 1.18 (≈ 2.02 µM) | 3.44 (≈ 5.9 µM) | 5.85 (≈ 10 µM) | 1.3 (≈ 2.23 µM) | > 50 | 1.27 (≈ 2.18 µM) | 2.41 (≈ 4.13 µM) | –
3 | CC(=O)c1ccc(OCC(=O)N2CCN(c3nc(N)nc4sc(CCc5ccc(F)cc5)nc34)CC2)cc1 [Example 227, 2-(4-acetylphenoxy)-1-(4-(5-amino-2-(4-fluorophenethyl)thiazolo[5,4-d]pyrimidin-7-yl)piperazin-1-yl)ethanone] | > 50 | 35.4 (≈ 66.1 µM) | 0.56 (≈ 1.05 µM) | > 50 | 2.19 (≈ 4.1 µM) | > 50 | > 50 | 4.59 (≈ 8.59 µM) | 0.3 (≈ 0.561 µM) | > 50 | 30.6 (≈ 57.2 µM) | 0.26 (≈ 0.486 µM) | > 50 | 4.8 (≈ 8.98 µM) | > 50 | –
4 | Nc1nc(N2CCN(C(=O)COc3ccc(Br)cc3)CC2)c2nc(CCc3ccc(F)cc3)sc2n1 [Example 52, 1-(4-(5-amino-2-(4-fluorophenethyl)thiazolo[5,4-d]pyrimidin-7-yl)piperazin-1-yl)-2-(4-bromophenoxy)ethanone] | > 50 | > 50 | > 50 | > 50 | 21.9 (≈ 38.4 µM) | > 50 | > 50 | > 50 | 30.7 (≈ 53.7 µM) | > 50 | > 50 | 15.7 (≈ 27.5 µM) | > 50 | > 50 | > 50 | CC50 at 72 h [16]: > 44.4 µM; EC50 ([17]; HeLa): 0.39 µg/mL (≈ 0.682 µM); EC50 ([17]; Vero): 0.12 µg/mL (≈ 0.21 µM); CC50 [18]: > 50 µg/mL; CC50 [19]: 95.7 µM; EC50 [20]: > 95.7 µM; EC50 ([21]; HeLa): > 50 µg/mL; EC50 ([21]; Vero): 0.49 µg/mL (≈ 0.857 µM); HCV-1a Replicon Selectivity Index ([22]; CC50/EC50, genotype 1a replicon): >1.3; EC50 ([22]; Hepatitis C virus, 72 h, read-out: HCV-1a Replicon EC50 (μM)): 35.3 µM; EC50 [23]: 2.71 µM; EC50 ([24]; HeLa): 0.38 µg/mL (≈ 0.665 µM); EC50 ([24]; Vero): 0.1 µg/mL (≈ 0.175 µM); CC50 [25]: 111 µg/mL (≈ 195 µM)
5 | COc1ccc(CCc2nc3c(N4CCN(C(=O)COc5ccc(Br)cc5)CC4)nc(N)nc3s2)cc1OC [Example 256, 1-(4-(5-amino-2-(3,4-dimethoxyphenethyl)thiazolo[5,4-d]pyrimidin-7-yl)piperazin-1-yl)-2-(4-bromophenoxy)ethanone] | 6.89 (≈ 11.2 µM) | > 50 | 4.05 (≈ 6.6 µM) | 5.97 (≈ 9.73 µM) | 9.48 (≈ 15.5 µM) | 2.81 (≈ 4.58 µM) | > 50 | 4.86 (≈ 7.92 µM) | 1.8 (≈ 2.93 µM) | > 50 | 32.9 (≈ 53.6 µM) | 2.07 (≈ 3.37 µM) | > 50 | 4.06 (≈ 6.62 µM) | 5.22 (≈ 8.51 µM) | –
6 | CCCCCc1nc2c(N3CCN(C(=O)COc4ccc(OC)cc4)CC3)nc(N)nc2s1 [Example 296, 1-(4-(5-amino-2-pentylthiazolo[5,4-d]pyrimidin-7-yl)piperazin-1-yl)-2-(4-methoxyphenoxy)ethanone] | 26.5 (≈ 56.3 µM) | 4.13 (≈ 8.78 µM) | 0.2 (≈ 0.425 µM) | 2.53 (≈ 5.38 µM) | 0.64 (≈ 1.36 µM) | 9.93 (≈ 21.1 µM) | 7.02 (≈ 14.9 µM) | 17.8 (≈ 37.7 µM) | 0.04 (≈ 0.085 µM) | 0.44 (≈ 0.935 µM) | 0.71 (≈ 1.51 µM) | 0.19 (≈ 0.404 µM) | > 50 | 0.09 (≈ 0.191 µM) | 4.25 (≈ 9.03 µM) | –
7 | Nc1nc(N2CCN(C(=O)COc3ccc(Br)cc3)CC2)c2nc(-c3ccc(F)cc3)sc2n1 [Example 235, 1-(4-(5-amino-2-(4-fluorophenyl)thiazolo[5,4-d]pyrimidin-7-yl)piperazin-1-yl)-2-(4-bromophenoxy)ethanone] | 0.65 (≈ 1.2 µM) | < 0.39 | < 0.02 | < 0.39 | < 0.39 | 0.04 (≈ 0.0736 µM) | < 0.39 | 0.58 (≈ 1.07 µM) | < 0.02 | < 0.02 | < 0.39 | < 0.02 | > 50 | < 0.02 | < 0.39 | –
